Assay [1] addresses T1, CYCLIN K (nuclear staining in CAL-120 cells) (Homo sapiens, UniProt O75909).
T1 construct: endogenous in cells; host or cells: CAL-120 human breast cancer cells (DSMZ ACC 459)
The assay can be described thus: CYCLIN K nuclear protein level: immunofluorescence high content analysis (CAL-120). The class given is cell-based. To be noted: 24 h, 50% reduction of nuclear CCNK staining intensity, median, read-out: CYCLIN K degradation IF, DC50-[mol/l] (median). The method, boiled down:
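Readout is automated confocal image analysis of nuclear cyclin K immunofluorescence (Hoechst nuclei) after PFA fixation. Cells were CAL-120, exposed to compound dose-response 24 h at 37 °C; values are DC50 for halving nuclear CCNK signal relative to DMSO and control wells.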

Assay [2] deals with BRCA1 mRNA expression in MDA-MB-231 cells. Kind of assay: qRT-PCR assay: BRCA1 mRNA expression in MDA-MB-231. The class given is cell-based, human. The following applies: Homo sapiens, MDA-MB-231, Inhibition of BRCA1 mRNA expression in MDA-MB-231 cells; median; read-out: RTqPCR-MDA-MB-231, IC50, BRCA1 (median). Put shortly:
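Human breast cancer cells, 200,000/well, were treated with test agents for 24 h without interruption after a 24 h settling period. Gene expression came from qPCR on cDNA made from 600 ng RNA, relative to GAPDH.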

T1 sequence (O75909 whole entry): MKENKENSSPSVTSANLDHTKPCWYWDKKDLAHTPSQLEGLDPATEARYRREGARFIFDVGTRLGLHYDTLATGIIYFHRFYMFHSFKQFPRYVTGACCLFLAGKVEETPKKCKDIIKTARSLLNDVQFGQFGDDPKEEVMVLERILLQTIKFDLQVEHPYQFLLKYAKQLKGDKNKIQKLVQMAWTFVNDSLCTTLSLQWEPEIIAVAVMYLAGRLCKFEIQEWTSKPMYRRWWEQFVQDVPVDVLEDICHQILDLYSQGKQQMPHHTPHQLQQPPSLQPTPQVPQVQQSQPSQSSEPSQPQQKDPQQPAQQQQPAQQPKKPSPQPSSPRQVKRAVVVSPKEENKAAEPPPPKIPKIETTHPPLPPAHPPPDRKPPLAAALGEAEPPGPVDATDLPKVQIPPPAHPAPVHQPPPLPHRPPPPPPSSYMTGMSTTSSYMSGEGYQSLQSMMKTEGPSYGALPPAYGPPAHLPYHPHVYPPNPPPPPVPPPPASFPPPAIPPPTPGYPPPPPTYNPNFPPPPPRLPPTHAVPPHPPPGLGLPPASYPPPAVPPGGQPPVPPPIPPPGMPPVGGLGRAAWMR
T1 sequence (Q9NYV4 whole entry partner): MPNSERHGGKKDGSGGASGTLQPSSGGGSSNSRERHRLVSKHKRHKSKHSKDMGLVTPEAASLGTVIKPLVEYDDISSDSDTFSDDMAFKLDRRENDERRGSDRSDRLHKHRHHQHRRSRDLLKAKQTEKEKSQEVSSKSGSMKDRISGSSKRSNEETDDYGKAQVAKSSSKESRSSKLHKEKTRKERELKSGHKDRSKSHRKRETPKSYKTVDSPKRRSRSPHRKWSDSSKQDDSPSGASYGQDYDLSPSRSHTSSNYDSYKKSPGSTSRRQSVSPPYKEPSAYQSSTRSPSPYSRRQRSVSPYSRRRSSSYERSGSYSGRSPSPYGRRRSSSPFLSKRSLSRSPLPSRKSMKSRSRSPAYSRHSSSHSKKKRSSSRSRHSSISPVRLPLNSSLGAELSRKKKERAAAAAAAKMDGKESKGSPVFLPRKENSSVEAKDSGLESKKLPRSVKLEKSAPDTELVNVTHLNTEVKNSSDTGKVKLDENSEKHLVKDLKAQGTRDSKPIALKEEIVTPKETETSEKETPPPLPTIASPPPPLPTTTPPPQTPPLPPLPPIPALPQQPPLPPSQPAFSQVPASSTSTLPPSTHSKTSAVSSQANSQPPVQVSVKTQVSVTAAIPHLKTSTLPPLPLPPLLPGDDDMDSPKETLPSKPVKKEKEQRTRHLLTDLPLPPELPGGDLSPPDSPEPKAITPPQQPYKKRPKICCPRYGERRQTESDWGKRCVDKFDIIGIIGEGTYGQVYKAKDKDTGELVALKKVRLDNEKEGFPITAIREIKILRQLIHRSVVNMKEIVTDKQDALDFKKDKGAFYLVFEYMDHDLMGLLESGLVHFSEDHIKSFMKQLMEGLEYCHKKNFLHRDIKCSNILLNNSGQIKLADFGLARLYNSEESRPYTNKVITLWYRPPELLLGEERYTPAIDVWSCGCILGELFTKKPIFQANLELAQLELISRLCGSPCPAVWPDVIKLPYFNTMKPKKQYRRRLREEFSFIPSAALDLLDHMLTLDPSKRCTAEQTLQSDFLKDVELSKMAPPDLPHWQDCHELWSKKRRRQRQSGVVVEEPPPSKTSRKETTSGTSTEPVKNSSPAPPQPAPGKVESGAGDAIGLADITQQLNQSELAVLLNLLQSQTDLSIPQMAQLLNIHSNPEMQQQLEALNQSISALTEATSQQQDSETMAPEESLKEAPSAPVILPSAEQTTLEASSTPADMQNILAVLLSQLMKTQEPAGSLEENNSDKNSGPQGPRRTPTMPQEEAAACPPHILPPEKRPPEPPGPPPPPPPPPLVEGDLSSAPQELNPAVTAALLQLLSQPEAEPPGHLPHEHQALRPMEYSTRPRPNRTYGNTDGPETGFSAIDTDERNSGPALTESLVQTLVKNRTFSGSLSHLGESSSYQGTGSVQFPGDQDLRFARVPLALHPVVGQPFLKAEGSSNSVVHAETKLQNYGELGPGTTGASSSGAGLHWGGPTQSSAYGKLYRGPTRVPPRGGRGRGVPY

A word on the IC50: it is the concentration needed to halve the response being measured. In the case of `N#Cc1cccc(-c2nnc(CNc3nc(N4CCOCC4)nc4c(Br)cnn34)[nH]2)c1` [Example 55, 3-[5-({[8-bromo-2-(morpholin-4-yl)pyrazolo[1,5-a][1,3,5]triazin-4-yl]amino}methyl)-4H-1,2,4-triazol-3-yl]benzonitrile], in assay [1], the DC50 is 0.843 nM. Also, the IC50 in assay [2] was 4.76 nM. In the same order, the values of `FC(F)(F)c1cnn2c(NCc3nnc(-c4ccccc4)[nH]3)nc(N3CCOCC3)nc12` [Example 427, 2-(morpholin-4-yl)-N-[(5-phenyl-4H-1,2,4-triazol-3-yl)methyl]-8-(trifluoromethyl)pyrazolo[1,5-a][1,3,5]triazin-4-amine] are 9.95 nM and 45 nM.

With `FC(F)Cc1cnn2c(NCc3nc4ccccc4[nH]3)nc(N3CCOCC3)nc12.O=C(O)C(F)(F)F` [Example 444, trifluoroacetic acid N-[(1H-benzimidazol-2-yl)methyl]-8-(2,2-difluoroethyl)-2-(morpholin-4-yl)pyrazolo[1,5-a][1,3,5]triazin-4-amine], the DC50 in assay [1] was 5.91 nM. For the same molecule, the IC50 in assay [2] is 51.5 nM.

For the molecule `Fc1ccc2[nH]c(CNc3nc(N4CCOCC4)nc4c(-c5nccs5)cnn34)nc2c1F` [Example 413, N-[(4,5-difluoro-1H-benzimidazol-2-yl)methyl]-2-(morpholin-4-yl)-8-(1,3-thiazol-2-yl)pyrazolo [1,5-a][1,3,5]triazin-4-amine], the DC50 in assay [1] worked out at 6.91 nM. Also, in assay [2], the IC50 was found to be 82.7 nM. The matching figures for `COc1ccccc1-c1nnc(CNc2nc(N3CCOCC3)nc3c(Br)cnn23)[nH]1` [Example 61, 8-bromo-N-{[5-(2-methoxyphenyl)-4H-1,2,4-triazol-3-yl]methyl}-2-(morpholin-4-yl)pyrazolo[1,5-a][1,3,5]triazin-4-amine]: 3.59 nM and 9.54 nM. Regarding `OC[C@H]1CCCCN1c1nc(NCc2nc3ccccc3[nH]2)n2ncc(Br)c2n1` [Example 60, [(2R)-1-(4-{[(1H-benzimidazol-2-yl)methyl]amino}-8-bromopyrazolo[1,5-a][1,3,5]triazin-2-yl)piperidin-2-yl]methanol], the DC50 in assay [1] came out at 3.05 nM. For the same molecule, the IC50 in assay [2] is 45.3 nM. For the molecule `FC(F)n1cc(-c2cnn3c(NCc4nc5cc(Cl)c(Cl)cc5[nH]4)nc(N4CCOCC4)nc23)cn1` [Example 423, N-[(5,6-dichloro-1H-benzimidazol-2-yl)methyl]-8-[1-(difluoromethyl)-1H-pyrazol-4-yl]-2-(morpholin-4-yl)pyrazolo[1,5-a][1,3,5]triazin-4-amine], the IC50 in assay [2] is 6.2 nM. Regarding `Fc1ccc2[nH]c(CNc3nc(N4CCOCC4)nc4c(-c5cncs5)cnn34)nc2c1F.O=C(O)C(F)(F)F` [Example 442, trifluoroacetic acid N-[(4,5-difluoro-1H-benzimidazol-2-yl)methyl]-2-(morpholin-4-yl)-8-(1,3-thiazol-5-yl)pyrazolo[1,5-a][1,3,5]triazin-4-amine], in assay [1], the DC50 is 0.385 nM. For the same molecule, in assay [2], the IC50 came to 0.738 nM.

On to `Cc1cnn2c(NCc3nc4c(F)c(F)ccc4[nH]3)nc(N3CCN(C)CC3)nc12` [Example 394, N-[(4,5-difluoro-1H-benzimidazol-2-yl)methyl]-8-methyl-2-(4-methylpiperazin-1-yl)pyrazolo[1,5-a][1,3,5]triazin-4-amine], for which, in assay [2], the IC50 stood at 11.4 nM. With `Brc1cnn2c(NCc3nnc(-c4cccnc4)[nH]3)nc(N3CCOCC3)nc12` [Example 53, 8-bromo-2-(morpholin-4-yl)-N-{[5-(pyridin-3-yl)-4H-1,2,4-triazol-3-yl]methyl}pyrazolo[1,5-a][1,3,5]triazin-4-amine], in assay [1], the DC50 was 9.25 nM. The IC50 in assay [2] stood at 77.1 nM. With `Cn1cc(-c2cnn3c(NCc4nc5cc(Cl)c(Cl)cc5[nH]4)nc(N4CCOCC4)nc23)cn1` [Example 419, N-[(5,6-dichloro-1H-benzimidazol-2-yl)methyl]-8-(1-methyl-1H-pyrazol-4-yl)-2-(morpholin-4-yl)pyrazolo[1,5-a][1,3,5]triazin-4-amine], in assay [1], the DC50 came to 9.09 nM. For `CN1CCN(c2nc(NCc3nc4c(F)c(F)ccc4[nH]3)n3ncc(CC(F)(F)F)c3n2)CC1` [Example 437, N-[(4,5-difluoro-1H-benzimidazol-2-yl)methyl]-2-(4-methylpiperazin-1-yl)-8-(2,2,2-trifluoroethyl) pyrazolo[1,5-a][1,3,5]triazin-4-amine], the DC50 in assay [1] is 2.09 nM. Also, the IC50 in assay [2] stood at 6.19 nM. In the same order, the values of `CC(C)c1cnn2c(NCc3nnc(-c4ccccc4)[nH]3)nc(N(C)CC(C)(C)O)nc12` [Example 39, 2-methyl-1-{methyl[4-{[(5-phenyl-4H-1,2,4-triazol-3-yl)methyl]amino}-8-(propan-2-yl)pyrazolo[1,5-a][1,3,5]triazin-2-yl]amino}propan-2-ol] are 8.13 nM and 92.3 nM.

Regarding `CN1CCN(c2nc(NCc3nc4ccccc4[nH]3)n3ncc(CC(F)(F)F)c3n2)CC1` [Example 436, N-[(1H-benzimidazol-2-yl)methyl]-2-(4-methylpiperazin-1-yl)-8-(2,2,2-trifluoroethyl)pyrazolo [1,5-a][1,3,5]triazin-4-amine], in assay [1], the DC50 was 15.9 nM. Regarding `COc1ccccc1-c1nnc(CNc2nc(N3CCN(C)CC3)nc3c(C4CC4(F)F)cnn23)[nH]1` (stereo not shown) [Example 430, 8-(2,2-difluorocyclopropyl)-N-{[5-(2-methoxyphenyl)-4H-1,2,4-triazol-3-yl]methyl}-2-(4-methylpiperazin-1-yl)pyrazolo[1,5-a][1,3,5]triazin-4-amine], the IC50 in assay [2] is 10 nM. As to `Fc1ccc(-c2nnc(CNc3nc(N4CCOCC4)nc4c(Br)cnn34)[nH]2)c(F)c1` [Example 41, 8-bromo-N-{[5-(2,4-difluorophenyl)-4H-1,2,4-triazol-3-yl]methyl}-2-(morpholin-4-yl)pyrazolo[1,5-a][1,3,5]triazin-4-amine], in assay [2], the IC50 is 3670 nM. Turning to `FC(F)n1cc(-c2cnn3c(NCc4nc5ccccc5[nH]4)nc(N4CCOCC4)nc23)cn1` [Example 421, N-[(1H-benzimidazol-2-yl)methyl]-8-[1-(difluoromethyl)-1H-pyrazol-4-yl]-2-(morpholin-4-yl)pyrazolo[1,5-a][1,3,5]triazin-4-amine], the 50% inhibitory concentration (IC50) in assay [2] came to 74.6 nM. As to `CC(C)c1cnn2c(NCc3ncc(-c4ccccc4)[nH]3)nc(N3CCCCC3)nc12` [Example 36, N-[(5-phenyl-1H-imidazol-2-yl)methyl]-2-(piperidin-1-yl)-8-(propan-2-yl)pyrazolo[1,5-a][1,3,5]triazin-4-amine], the IC50 in assay [2] worked out at 128 nM.

`Cn1cc(-c2cnn3c(NCc4nc5c(F)c(F)ccc5[nH]4)nc(N4CCOCC4)nc23)cn1` [Example 418, N-[(4,5-difluoro-1H-benzimidazol-2-yl)methyl]-8-(1-methyl-1H-pyrazol-4-yl)-2-(morpholin-4-yl)pyrazolo[1,5-a][1,3,5]triazin-4-amine]: in assay [1], the DC50 was 2.4 nM. On the same count and under the same terms, with `Brc1cnn2c(NCc3nc4ccccc4[nH]3)nc(OC3CCNCC3)nc12` [Example 411, N-[(1H-benzimidazol-2-yl)methyl]-8-bromo-2-[(piperidin-4-yl)oxy]pyrazolo[1,5-a][1,3,5]triazin-4-amine] the figure was 15.9 nM.

As to `CN1CCN(c2nc(NCc3nc4ccccc4[nH]3)n3ncc(C4CC4(F)F)c3n2)CC1` (stereo not shown) [Example 428, N-(1H-benzimidazol-2-ylmethyl)-8-(2,2-difluorocyclopropyl)-2-(4-methylpiperazin-1-yl)pyrazolo[1,5-a][1,3,5]triazin-4-amine], the DC50 in assay [1] is 6.19 nM. In the case of `CC(C)c1cnn2c(NCc3nnc(-c4ccccc4)[nH]3)nc(N3CCOCC3)nc12` [Example 33, 2-(morpholin-4-yl)-N-[(5-phenyl-4H-1,2,4-triazol-3-yl)methyl]-8-(propan-2-yl)pyrazolo[1,5-a][1,3,5]triazin-4-amine], the IC50 in assay [2] came to 23.7 nM. Consider `Cc1cnn2c(NCc3nc4c(F)c(F)ccc4[nH]3)nc(N3CC4CCC(C3)N4)nc12` [Example 400, 2-(3,8-diazabicyclo[3.2.1]octan-3-yl)-N-[(4,5-difluoro-1H-benzimidazol-2-yl)methyl]-8-methylpyrazolo[1,5-a][1,3,5]triazin-4-amine], for which the IC50 in assay [2] was 14 nM. Turning to `CC(C)(O)COc1nc(NCc2nc3ccccc3[nH]2)n2ncc(Br)c2n1` [Example 398, 1-[(4-{[(1H-benzimidazol-2-yl)methyl]amino}-8-bromopyrazolo[1,5-a][1,3,5]triazin-2-yl)oxy]-2-methylpropan-2-ol], the DC50 in assay [1] was found to be 10.4 nM. Turning to `CC(C)c1cnn2c(NCc3ncc(-c4ccccc4)[nH]3)nc(N(C)CC(C)(C)O)nc12` [Example 35, 2-methyl-1-{methyl[4-{[(5-phenyl-1H-imidazol-2-yl)methyl]amino}-8-(propan-2-yl)pyrazolo[1,5-a][1,3,5]triazin-2-yl]amino}propan-2-ol], the IC50 in assay [2] was determined as 39 nM. For `CCNc1nc(NCc2ncc(-c3ccccc3)[nH]2)n2ncc(C(C)C)c2n1` [Example 34, N^2-ethyl-N^4-[(5-phenyl-1H-imidazol-2-yl)methyl]-8-(propan-2-yl)pyrazolo[1,5-a][1,3,5]triazine-2,4-diamine], the IC50 in assay [2] amounted to 10 nM. In the case of `Clc1cc2nc(CNc3nc(N4CCOCC4)nc4c(-c5ccnnc5)cnn34)[nH]c2cc1Cl.O=C(O)C(F)(F)F` [Example 440, trifluoroacetic acid N-[(5,6-dichloro-1H-benzimidazol-2-yl)methyl]-2-(morpholin-4-yl)-8-(pyridazin-4-yl)pyrazolo[1,5-a][1,3,5]triazin-4-amine], in assay [2], the IC50 stood at 2.7 nM.
